For one assay, the target named is bovine thrombin (Bos taurus, UniProt P00735). The assay is described as follows: Chromogenic thrombin inhibition assay in plasma samples pretreated with oxidizing agent (sodium hypochlorite) and neutralizing agent (HCl). The assay is classed as biochemical. Particulars: for ΔA/min (conversion of chromogenic thrombin substrate): plasma without inhibitor 2623. The protocol:
(§1) Various amounts of direct coagulation factor inhibitors (rivaroxaban as direct factor Xa inhibitor, argatroban as direct thrombin inhibitor) or indirect coagulation factor inhibitors (fondaparinux pentasaccharide [Arixtra®], high-molecular-weight heparin [HMWH]) were added to normal human plasma.
(§2) 20 μl of plasma sample were mixed with 10 μl of a 0.1% strength hypochlorous acid (sodium hypochlorite) as oxidizing agent, and the reaction mix was incubated at +37° C. for 30 seconds. Subsequently, 10 μl of a 0.1% strength hydrochloric acid solution were added to the reaction mix to neutralize the oxidizing agent, and the reaction mix was incubated at +37° C. for 30 seconds. Subsequently, 140 μl of thrombin reagent (bovine thrombin, 6 U/ml) were added to the reaction mix, and the reaction mix was incubated at +37° C. for 30 seconds. Subsequently, 50 μl of a chromogenic thrombin substrate (Tos-L-Gly-Pro-Arg-ANBA-isopropylamide, 4 mmol/l) were added to the reaction mix, and conversion of the substrate (in ΔA/time) was determined at a wavelength of 405 nm in an automated coagulation measurement instrument (BCS® System, Siemens Healthcare Diagnostics).
(§3) The reduction in substrate conversion compared to plasma without any inhibitors correlates with the amount of inhibitor in the sample.

The target of the next assay is human factor Xa (Homo sapiens, UniProt P00742). The assay is described as follows: Chromogenic factor Xa inhibition assay in plasma samples pretreated with oxidizing agent (sodium hypochlorite) and neutralizing agent (HCl). It is filed as biochemical. Particulars: for ΔA/min (conversion of chromogenic factor Xa substrate): plasma without inhibitor 2268. The protocol:
as §1
as §2, with “95” for “140”, “factor Xa” for “thrombin”, “(human factor Xa, 1 U/ml in TRIS buffer, pH 8.0)” for “(bovine thrombin, 6 U/ml)”, “80” for “50”, “(Z-D-Leu-Gly-Arg-ANBA-methylamide,” for “(Tos-L-Gly-Pro-Arg-ANBA-isopropylamide,”
as §3

[1] abbreviates: 200 ng/ml in normal human plasma, pretreated sample.
Setting [2] is: plasma samples containing the substance.
The mark [3] stands for this setting: pretreatment with hypochlorite then HCl.
Setting [4] is: 20 μg/ml in normal human plasma, pretreated sample.
[5] abbreviates: 200 μg/ml in normal human plasma, pretreated sample.

The results in this text go back to patent US8685636B2, “Heparin-insensitive method for determining direct coagulation factor inhibitors” (Siemens Healthcare Diagnostics Products GmbH, priority 2011, dated 2014).

Chain of human factor Xa (P00742 235-488 limits assumed): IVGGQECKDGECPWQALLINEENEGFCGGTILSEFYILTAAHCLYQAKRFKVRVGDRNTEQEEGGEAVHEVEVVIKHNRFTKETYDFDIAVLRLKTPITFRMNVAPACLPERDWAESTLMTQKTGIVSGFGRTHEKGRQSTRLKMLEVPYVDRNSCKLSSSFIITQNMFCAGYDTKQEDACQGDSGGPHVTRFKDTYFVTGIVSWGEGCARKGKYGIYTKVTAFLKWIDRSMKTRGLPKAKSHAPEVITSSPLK
Chain of human factor Xa (P00742 41-179 partner limits assumed): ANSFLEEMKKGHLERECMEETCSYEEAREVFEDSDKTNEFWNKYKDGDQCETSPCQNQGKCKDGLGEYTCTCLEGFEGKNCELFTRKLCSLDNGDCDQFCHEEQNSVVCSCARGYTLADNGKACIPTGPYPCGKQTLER

Regarding `O=C(NC[C@H]1CN(c2ccc(N3CCOCC3=O)cc2)C(=O)O1)c1ccc(Cl)s1` [rivaroxaban], on bovine thrombin (setting [1]), the inhibition at 0.2 µg/mL was found to be 0% and the “ΔA/min (conversion of chromogenic thrombin substrate)” value is given as 2612 ΔA/min. At bovine thrombin (setting [2]), the “thrombin inhibition (in words)” value was “thrombin inhibition does not take place”. In addition, the “ΔA/min (conversion of chromogenic factor Xa substrate)” value on human factor Xa (setting [1]) is on record as 1296 ΔA/min. Moreover, the inhibition at 0.2 µg/mL at human factor Xa (200 ng/ml in normal human plasma, pretreated sample, read-out: FXa inhibition) worked out at 43%. The “effect of pretreatment of the samples on the inhibition of factor Xa by the substance (in words)” value on human factor Xa (setting [3]) was “not impaired”.
Turning to `CC1CNc2c(cccc2S(=O)(=O)N[C@@H](CCCNC(=N)N)C(=O)N2CC[C@@H](C)C[C@@H]2C(=O)O)C1` (stereo partly drawn) [argatroban], at bovine thrombin (setting [4]), the inhibition at 20 µg/mL was determined as 95% and the “ΔA/min (conversion of chromogenic thrombin substrate)” value is given as 140 ΔA/min. On bovine thrombin (setting [5]), the inhibition at 200 µg/mL came to 99% and the “ΔA/min (conversion of chromogenic thrombin substrate)” value is recorded as 36 ΔA/min. Further, the “effect of pretreatment of the samples on the inhibition of thrombin by the substance (in words)” value on bovine thrombin (setting [3]) is “not impaired”. For the same compound, at human factor Xa (setting [4]), the “ΔA/min (conversion of chromogenic factor Xa substrate)” value is on record as 2176 ΔA/min. In addition, the inhibition at 20 µg/mL on human factor Xa (20 μg/ml in normal human plasma, pretreated sample, read-out: FXa inhibition) was determined as 4%. Also, on human factor Xa (setting [2]), the “factor Xa inhibition (in words)” value was “factor Xa inhibition does not take place”.
On to `CO[C@H]1O[C@H](COS(=O)(=O)O)[C@@H](O[C@@H]2O[C@@H](C(=O)O)[C@@H](O[C@H]3O[C@H](COS(=O)(=O)O)[C@@H](O[C@@H]4O[C@H](C(=O)O)[C@@H](O[C@H]5O[C@H](COS(=O)(=O)O)[C@@H](O)[C@H](O)[C@H]5NS(=O)(=O)O)[C@H](O)[C@H]4O)[C@H](OS(=O)(=O)O)[C@H]3NS(=O)(=O)O)[C@H](O)[C@H]2OS(=O)(=O)O)[C@H](O)[C@H]1NS(=O)(=O)O` [Arixtra, fondaparinux], for which the inhibition at 1 µg/mL at bovine thrombin (1 μg/ml in normal human plasma, pretreated sample) turned out to be 5%; at human factor Xa (1 μg/ml in normal human plasma, pretreated sample, read-out: FXa inhibition) it was 4%. The inhibition at 4 µg/mL is 2% at bovine thrombin (4 μg/ml in normal human plasma, pretreated sample) and 3% on human factor Xa (4 μg/ml in normal human plasma, pretreated sample, read-out: FXa inhibition).

Broadly, the inhibition is how much of the control response was suppressed.
